“And” between values parts separate entries of the source, which are not always exact repeats. Identical values can stand only once.
What was measured:
Type in all cases: cell-based
320 non-olfactory GPCRs [1] = target: T1, 320 non-olfactory GPCRs (Homo sapiens, UniProt Q9GZQ4); conditions: receptor NMUR2; replicate values, Fig_4g
T1 construct: expressed in transfected cells; host or cells: HTLA cells

320 non-olfactory GPCRs [2] = target: 320 non-olfactory GPCRs (Homo sapiens, UniProt P35414)
320 non-olfactory GPCRs [3] = target: T2, 320 non-olfactory GPCRs (Homo sapiens, UniProt P48039); conditions: receptor MTNR1A; replicate values, Fig_4g
T2 construct: expressed in transfected cells; host or cells: HTLA cells

320 non-olfactory GPCRs [4] = target: T3, 320 non-olfactory GPCRs (Homo sapiens, UniProt P49286); conditions: receptor MTNR1B; replicate values, Fig_4g
T3 construct: expressed in transfected cells; host or cells: HTLA cells
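Wherever Fold of Basal is given: compound tested at 1 µM final concentration.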
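Wherever GPCRome agonism screen response is given: fold over basal response of each receptor without drug.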

T2 sequence (P48039 whole entry): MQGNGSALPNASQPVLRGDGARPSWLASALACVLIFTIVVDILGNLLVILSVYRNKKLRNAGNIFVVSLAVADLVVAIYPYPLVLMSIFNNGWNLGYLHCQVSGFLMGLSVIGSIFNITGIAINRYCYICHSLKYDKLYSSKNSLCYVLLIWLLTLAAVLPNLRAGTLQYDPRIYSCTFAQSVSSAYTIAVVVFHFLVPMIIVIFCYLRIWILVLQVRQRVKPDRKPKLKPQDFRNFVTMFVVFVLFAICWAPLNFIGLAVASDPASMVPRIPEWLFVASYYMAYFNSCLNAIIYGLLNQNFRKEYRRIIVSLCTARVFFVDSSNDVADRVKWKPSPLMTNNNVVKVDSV
Chain of 320 non-olfactory GPCRs (Homo sapiens, UniProt P35414) (P35414 whole entry): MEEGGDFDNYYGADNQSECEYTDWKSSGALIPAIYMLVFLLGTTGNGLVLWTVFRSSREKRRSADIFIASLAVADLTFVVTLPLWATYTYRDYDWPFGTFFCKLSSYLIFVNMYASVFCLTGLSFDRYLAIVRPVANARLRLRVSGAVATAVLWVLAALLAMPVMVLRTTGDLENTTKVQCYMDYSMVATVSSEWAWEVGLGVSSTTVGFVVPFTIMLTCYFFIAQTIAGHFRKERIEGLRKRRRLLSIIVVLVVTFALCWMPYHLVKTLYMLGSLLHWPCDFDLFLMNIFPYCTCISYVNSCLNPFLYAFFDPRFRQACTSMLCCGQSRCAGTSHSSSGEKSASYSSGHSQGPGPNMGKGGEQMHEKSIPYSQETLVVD
T1 sequence (Q9GZQ4 whole entry): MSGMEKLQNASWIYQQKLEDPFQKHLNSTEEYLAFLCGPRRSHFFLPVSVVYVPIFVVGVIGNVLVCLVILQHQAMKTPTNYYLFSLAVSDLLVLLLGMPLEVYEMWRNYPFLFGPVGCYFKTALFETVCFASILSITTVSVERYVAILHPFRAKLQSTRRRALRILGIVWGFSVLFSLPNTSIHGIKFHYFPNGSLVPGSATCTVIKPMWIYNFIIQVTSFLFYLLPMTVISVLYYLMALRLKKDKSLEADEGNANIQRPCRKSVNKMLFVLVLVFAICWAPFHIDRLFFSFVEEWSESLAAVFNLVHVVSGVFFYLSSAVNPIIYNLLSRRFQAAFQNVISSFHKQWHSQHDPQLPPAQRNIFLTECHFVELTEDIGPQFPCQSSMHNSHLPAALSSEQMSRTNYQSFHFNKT
T3 sequence (P49286 whole entry): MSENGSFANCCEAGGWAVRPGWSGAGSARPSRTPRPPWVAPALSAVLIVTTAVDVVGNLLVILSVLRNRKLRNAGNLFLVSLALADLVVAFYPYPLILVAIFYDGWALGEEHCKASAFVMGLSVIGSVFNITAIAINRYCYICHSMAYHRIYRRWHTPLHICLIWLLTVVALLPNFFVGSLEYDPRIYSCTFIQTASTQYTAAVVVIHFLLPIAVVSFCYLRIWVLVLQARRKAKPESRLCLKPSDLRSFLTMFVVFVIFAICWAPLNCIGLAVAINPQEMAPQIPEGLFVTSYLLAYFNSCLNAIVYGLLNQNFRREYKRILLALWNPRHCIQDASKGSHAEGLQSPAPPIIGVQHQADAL

## CCOc1cccc2cc(C(C)NCC3(O)CCCCC3)oc12 (stereo not shown) [O4LE6]
320 non-olfactory GPCRs [1]
  GPCRome agonism screen response: 1.0233 and 1.105 and 1.159 and 0.9738
320 non-olfactory GPCRs [2]
  Fold of Basal: 1.057 and 1.1216 and 0.9447 and 1.032
320 non-olfactory GPCRs [3]
  GPCRome agonism screen response: 2.743 and 4.229 and 2.242 and 2.817
320 non-olfactory GPCRs [4]
  GPCRome agonism screen response: 1.769 and 0.5073 and 1.312 and 1.409
